Each structure is given as a SMILES string. Some results are limits rather than exact numbers.

Usually solubility stands for the concentration that dissolves in the medium under given conditions.

A short description of data set [1]: solubility of econazole nitrate in water and in the isosorbide preparations. It is filed as physicochemical.
Data set [2] can be described thus: solubility of the steroid in water and in hydrocarbon and other vehicles. It is filed as physicochemical.

For `Clc1ccc(COC(Cn2ccnc2)c2ccc(Cl)cc2Cl)cc1` (centres unmarked) [econazole nitrate], the “solubilized and available econazole nitrate relative to a conventional lotion or cream” value in data set [1] (in these preparations (Econazole Cream 0.5%, Econazole Lotion 0.5%) vs conventional lotion or cream, about) is on record as at least 5 times. In data set [1] (water), the solubility is around 1 mg/mL.

On to `CC1(C)O[C@@H]2C[C@H]3[C@@H]4CCC5=CC(=O)CC[C@]5(C)[C@@]4(F)[C@@H](O)C[C@]3(C)[C@]2(C(=O)CCl)O1` [21-chloro-9α-fluoro-Δ^4-pregnene-11β,16α,17α-triol-3,20-dione 16,17-acetonide], for which the “solubility in hydrocarbon vehicles” value in data set [2] (mineral oil, petrolatum or polyethylene gelled mineral oil, compared with water) is listed as “even less soluble”. In data set [2] (water), this compound registered a solubility below 0.005 mg/mL. Further, the “solubility in water-soluble emulsifiers and oil liquids or emollients” value in data set [2] (water-soluble emulsifiers and oil liquids or emollients suggested for ointments, gels, creams and lotions) is on record as “undesirably low solubility”.

(Values after patent US4082881A, “Topical and other type pharmaceutical formulations containing isosorbide carrier” (E. R. Squibb & Sons, Inc., priority 1976, dated 1978).)
